Results as given in patent US20100210664A1, “BENZENESULFONAMIDE COMPOUNDS SUITABLE FOR TREATING DISORDERS THAT RESPOND TO MODULATION OF THE DOPAMINE D3 RECEPTOR” (priority 2007, published 2010).

Columns and labels:
[1] = target: T1, human dopamine D2L receptors (long isoform) (Homo sapiens, UniProt P14416); test: Dopamine D2L receptor binding, displacement of [125I] iodospiperone; details: ratio Ki(D2L)/Ki(D3); HEK-293 membranes
T1 construct: expressed in transfected cells; host or cells: HEK-293 cells (membranes)
Procedure: (§1) The substance to be tested was either dissolved in methanol/Chremophor® (BASF-AG) or in dimethyl sulfoxide and then diluted with water to the desired concentration.
(§2) Each assay mixture was run in triplicate.
The incubation buffer contained 50 mM tris, 120 mM NaCl, 5 mM KCl, 2 mM CaCl2, 2 mM MgCl2 and 0.1% bovine serum albumin. The buffer was adjusted to pH 7.4 with HCl.
(§3) After having been incubated at 25° C. for 60 minutes, the assay mixtures were filtered through a Whatman GF/B glass fiber filter under vacuum using a cell collecting device. The filters were transferred to scintillation viols using a filter transfer system. After 4 ml of Ultima Gold® (Packard) have been added, the samples were shaken for one hour and the radioactivity was then counted in a Beta-Counter (Packard, Tricarb 2000 or 2200CA). The cpm values were converted into dpm using a standard quench series and the program belonging to the instrument.
(§4) The inhibition curves were analyzed by means of iterative nonlinear regression analysis using the Statistical Analysis System (SAS) which is similar to the “LIGAND” program described by Munson and Rodbard.

[2] = target: T2, human dopamine D3 receptors (Homo sapiens, UniProt P35462); test: Dopamine D3 receptor binding, displacement of [125I]-iodosulpride; details: membranes of HEK-293 cells stably expressing human D3; 0.1 nM [125I]-iodosulpride
T2 construct: expressed in transfected cells; host or cells: HEK-293 cells (membranes)
Procedure: as §1, §2
The incubation buffer contained 50 mM tris, 120 mM NaCl, 5 mM KCl, 2 mM CaCl2, 2 mM MgCl2 and 0.1% bovine serum albumin, 10 μM quinolone and 0.1% ascorbic acid (prepared fresh daily). The buffer was adjusted to pH 7.4 with HCl.
as §3, §4

T1 sequence (P14416 whole entry, canonical isoform): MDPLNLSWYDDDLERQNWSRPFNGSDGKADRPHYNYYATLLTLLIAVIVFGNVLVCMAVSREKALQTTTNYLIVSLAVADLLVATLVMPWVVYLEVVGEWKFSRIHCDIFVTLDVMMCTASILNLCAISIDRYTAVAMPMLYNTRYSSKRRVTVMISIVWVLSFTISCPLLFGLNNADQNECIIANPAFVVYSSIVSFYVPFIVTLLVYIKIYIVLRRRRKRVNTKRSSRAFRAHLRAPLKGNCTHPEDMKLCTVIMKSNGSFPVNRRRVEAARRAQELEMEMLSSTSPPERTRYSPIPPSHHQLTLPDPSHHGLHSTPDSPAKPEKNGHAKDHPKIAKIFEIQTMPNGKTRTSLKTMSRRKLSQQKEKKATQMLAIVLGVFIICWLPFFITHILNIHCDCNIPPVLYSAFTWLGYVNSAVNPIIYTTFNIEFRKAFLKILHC
T2 sequence (P35462 whole entry): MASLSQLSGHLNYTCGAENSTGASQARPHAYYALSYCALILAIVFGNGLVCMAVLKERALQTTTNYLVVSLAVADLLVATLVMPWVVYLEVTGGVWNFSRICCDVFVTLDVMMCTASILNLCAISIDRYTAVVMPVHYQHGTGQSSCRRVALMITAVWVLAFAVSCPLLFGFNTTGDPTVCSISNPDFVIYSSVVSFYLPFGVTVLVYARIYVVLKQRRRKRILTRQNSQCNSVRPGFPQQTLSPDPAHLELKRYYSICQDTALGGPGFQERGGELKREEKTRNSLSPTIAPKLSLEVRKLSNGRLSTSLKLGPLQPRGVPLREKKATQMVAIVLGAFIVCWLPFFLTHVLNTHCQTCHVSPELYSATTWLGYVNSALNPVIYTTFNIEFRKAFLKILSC

Row | Selectivity vs. D2L, Ki(D2L)/Ki(D3) [1] | Ki [2] | Structure (SMILES)
1 | >50 | < 0.01 µM | Cc1nc(N2CCNCC2)ccc1NS(=O)(=O)c1ccc([C@@H](C)C(F)F)cc1 [Example 10, 4-((R)-2,2-Difluoro-1-methyl-ethyl)-N-(2-methyl-6-piperazin-1-yl-pyridin-3-yl)-benzenesulfonamide]
2 | >50 | < 0.01 µM | Cc1nc(N2CCNCC2)ccc1NS(=O)(=O)c1ccc(C(C)C(F)(F)F)cc1 (centres unmarked) [Example 11, 4-(2,2,2-Trifluoro-1-methyl-ethyl)-N-(2-methyl-6-piperazin-1-yl-pyridin-3-yl)-benzenesulfonamide]
3 | >50 | < 0.01 µM | Cc1nc(N2CCNCC2)ccc1NS(=O)(=O)c1ccc([C@@H](C)C(F)(F)F)cc1 [Example 12, 4-((R)-2,2,2-Trifluoro-1-methyl-ethyl)-N-(2-methyl-6-piperazin-1-yl-pyridin-3-yl)-benzenesulfonamide]
4 | >50 | < 0.01 µM | Cc1nc(N2CCNCC2)ccc1NS(=O)(=O)c1ccc([C@H](C)C(F)(F)F)cc1 [Example 13, 4-((S)-2,2,2-Trifluoro-1-methyl-ethyl)-N-(2-methyl-6-piperazin-1-yl-pyridin-3-yl)-benzenesulfonamide]
5 | >50 | < 0.01 µM | COc1nc(N2CCNCC2)ccc1NS(=O)(=O)c1ccc([C@@H](C)CF)cc1 [Example 14, 4-((R)-2-Fluoro-1-methyl-ethyl)-N-(2-methoxy-6-piperazin-1-yl-pyridin-3-yl)-benzenesulfonamide]
6 | >50 | < 0.01 µM | COc1nc(N2CCNCC2)ccc1NS(=O)(=O)c1ccc([C@H](C)CF)cc1 [Example 15, 4-((S)-2-Fluoro-1-methyl-ethyl)-N-(2-methoxy-6-piperazin-1-yl-pyridin-3-yl)-benzenesulfonamide]
7 | >50 | < 0.01 µM | COc1nc(N2CCNCC2)ccc1NS(=O)(=O)c1ccc(C(C)C(F)F)cc1 (centres unmarked) [Example 16, 4-(2,2-Difluoro-1-methyl-ethyl)-N-(2-methoxy-6-piperazin-1-yl-pyridin-3-yl)-benzenesulfonamide]
8 | >50 | < 0.01 µM | COc1nc(N2CCNCC2)ccc1NS(=O)(=O)c1ccc(C(C)C(F)(F)F)cc1 (centres unmarked) [Example 17, N-(2-Methoxy-6-piperazin-1-yl-pyridin-3-yl)-4-(2,2,2-trifluoro-1-methyl-ethyl)-benzenesulfonamide]
9 | >50 | < 0.01 µM | COc1nc(N2CCNCC2)ccc1NS(=O)(=O)c1ccc([C@H](C)C(F)(F)F)cc1 [Example 18, N-(2-Methoxy-6-piperazin-1-yl-pyridin-3-yl)-4-((S)-2,2,2-trifluoro-1-methyl-ethyl)-benzenesulfonamide]

Second part, the compound before the results:

Row | Structure (SMILES) | Selectivity vs. D2L, Ki(D2L)/Ki(D3) [1] | Ki [2]
10 | Cc1nc(N2CCN[C@@H](C)C2)ccc1NS(=O)(=O)c1ccc([C@H](C)CF)cc1 [Example 1, 4-((S)-2-Fluoro-1-methyl-ethyl)-N-[2-methyl-6-((S)-3-methyl-piperazin-1-yl)-pyridin-3-yl]-benzenesulfonamide] | >50 | < 0.01 µM
11 | Cc1nc(N2CCN[C@@H](C)C2)ccc1NS(=O)(=O)c1ccc([C@@H](C)CF)cc1 [Example 2, 4-((R)-2-Fluoro-1-methyl-ethyl)-N-[2-methyl-6-((S)-3-methyl-piperazin-1-yl)-pyridin-3-yl]-benzenesulfonamide] | >50 | < 0.01 µM
12 | Cc1nc(N2CCNCC2)ccc1NS(=O)(=O)c1ccc([C@@H](C)CF)cc1 [Example 5, 4-((R)-2-Fluoro-1-methyl-ethyl)-N-[2-methyl-6-piperazin-1-yl-pyridin-3-yl]-benzenesulfonamide] | >50 | < 0.01 µM
13 | Cc1nc(N2CCNCC2)ccc1NS(=O)(=O)c1ccc([C@H](C)CF)cc1 [Example 6, 4-((S)-2-Fluoro-1-methyl-ethyl)-N-[2-methyl-6-piperazin-1-yl-pyridin-3-yl]-benzenesulfonamide] | >50 | < 0.01 µM
14 | Cc1nc(N2CCNCC2)c(Br)cc1NS(=O)(=O)c1ccc([C@H](C)CF)cc1 [Example 7, N-(5-Bromo-2-methyl-6-piperazin-1-yl-pyridin-3-yl)-4-((S)-2-fluoro-1-methyl-ethyl)-benzenesulfonamide, reference compound] | >10 | < 1 µM
15 | Cc1nc(N2CCNCC2)ccc1NS(=O)(=O)c1ccc(C(C)C(F)F)cc1 (centres unmarked) [Example 8, 4-(2,2-Difluoro-1-methyl-ethyl)-N-(2-methyl-6-piperazin-1-yl-pyridin-3-yl)-benzenesulfonamide] | >50 | < 0.01 µM
16 | Cc1nc(N2CCNCC2)ccc1NS(=O)(=O)c1ccc([C@H](C)C(F)F)cc1 [Example 9, 4-((S)-2,2-Difluoro-1-methyl-ethyl)-N-(2-methyl-6-piperazin-1-yl-pyridin-3-yl)-benzenesulfonamide] | >50 | < 0.01 µM
